Laboratory results published in patent US9402919B2, “Vectors conditionally expressing protein” (Intrexon Corporation, priority 2011, dated 2016).

Assays:
murine melanoma, B16F0 = experiment: Bilateral B16F0 melanoma model: tumor volume after intratumoral Ad-RTS-mIL12; type: in vivo, C57BL/6 mice; settings: day 21 post cell inoculation; activator ligand chow 1000 mg/kg alone, no vector
Text: We investigated if the treatment of a local tumor with Ad-RTS-mIL12 (resulting in local tumor growth regression) would also lead to anti-tumor activity in the distant tumor. Toward this goal, we developed melanoma tumors on both flank regions of immunocompetent mice (C57BL/6) and treated the tumor on the right flank with Ad-RTS-mIL12 in the presence of activator ligand.
Six- to eight-week-old female C57B1/6 mice were purchased from Harlan (USA). Animal care and experimental procedures were performed according to Intrexon's Institutional Animal Care and Use Committee guidelines.
The murine melanoma (B16F0) cells were purchased from ATCC (Manassas, Va.). B16F0 cells were grown in Dulbecco's modified Eagle's medium (ATCC, Manassas, Va.), The DMEM was supplemented with heat-inactivated fetal calf serum (FCS) 10% v/v, 2-mM L-glutamine (Atlanta Biologicals, Inc, Lawrenceville, Ga.), 100 IU/ml […], and 100 μg/ml streptomycin. The cells were grown at 37° C. in 5% CO2. All cell lines were routinely tested and found to be free of mycoplasma. […]
Vector was administered intratumorally on Day 12 and Day 19 post tumor cell inoculation. Tumor size and body weight of each mouse were monitored three times a week until the end of the study. […]
The tumor volumes were calculated using the formula, L×W^2/2. […]

[1] = Plasma HuEPO expression as a function of activator ligand dose in chow after IM AAV-HuEPO (0034A); type: in vivo
Protocol: Animals were anesthetized, their quadriceps were visualized and the injection site sterilized. The mice were injected with vector using a 0.5 ml insulin syringe and a 29.5 gauge needle. Each animal was injected with total of 10^11 virus genomes in a 100 μl volume. After the procedure, the animals were placed in their cage and observed for normal ambulation.
Plasma samples were assayed for the presence of human erythropoietin using Enzyme Linked Immunosorbent Assay (ELISA) (StemCell Technologies, #01630).
Animals were bled for baseline HCT levels, followed by IM administration of 10^11 AAV-HuEPO viral genomes per animal (0034A). Animals received activator ligand-containing chow, with activator ligand concentrations 1000 mg/kg (18-1000), 250 mg/kg (18-250), 100 mg/kg (18-100), 50 mg/kg (18-50), or 0 mg/kg (18-0) starting on the day of AAV administration. Control animals received either vector administration and normal chow (no activator ligand, 18-0), or they received vehicle-alone IM administration (saline) with (18-1000) or without (18-0) activator ligand. HCT and HuEPO expression levels were measured in all groups every 7 days.

[2] = system: Lewis lung carcinoma (LLC); experiment: Syngeneic Lewis lung carcinoma model: tumor growth after i.t. Ad-RTS vectors with oral AL; type: in vivo, mice; settings: oral AL alone in feed at 1000 ppm (~225 mg/kg/day)
Text: Current cancer immunotherapies have provided limited success in the clinic and innovative strategies are required to further enhance the effectiveness of an anti-tumor immune response. This study assessed anti-tumor activity utilizing intratumoral (i.t.) administration of adenovirus (Ad) with the novel Rheoswitch Therapeutic System® (RTS®), an inducible promoter system, for regulated expression of murine IL-12 or IFNa. Oral administration of a small molecule activator ligand (AL), INXN-1001, regulates the expression of IL-12 in Ad-RTS-mIL-12 and IFNa in Ad-RTS-mIFNa. The regulated expression and therapeutic benefit of IL-12 and IFNa from i.t. administered Ad-RTS-mIL-12 and Ad-RTS-mIFNa, either alone or in combination, was examined in syngeneic Lewis lung carcinoma (LLC) and syngeneic mammary carcinoma (4T1) models.
In contrast, i.t. injection with 10^10 vp Ad-RTS-mIL-12 or Ad-RTS-mIFNa and daily oral AL led to significant tumor growth inhibition by day 25 (72 and 71%, respectively; p<0.05). […] Future studies will investigate the mechanism by which both IL-12 and IFNα exert their anti-tumor effect in the above tumor models.
LLC and 4T1 cells were transiently transduced with Ad-RTS-murine IL12 or Ad-RTS-murine IFNa at a MOI of 100. […] Supernatants were collected at 48 h and cytokine levels assessed by ELISA. n=3, mean±s.d. […]

Row | Structure (SMILES) | average tumor volume, right flank tumor (murine melanoma, B16F0) [mm^3] | plasma HuEPO expression ([1]; ligand chow 50 mg/kg (18-50), 14 and 21 days, 0034A IM) | plasma HuEPO expression ([1]; ligand chow 50 mg/kg (18-50), 7 days, 0034A 10^11 viral genomes IM, limit of sensitivity of the assay) [mU/ml] | plasma HuEPO expression ([1]; ligand chow 100 mg/kg (18-100), 7 days, 0034A IM) | inhibition of tumor growth compared to control, untreated tumors [2]
1 | CCC[C@@H](N(NC(=O)c1cccc(OC)c1CC)C(=O)c1cc(C)cc(C)c1)C(C)(C)C [activator ligand, (R)-3,5-Dimethyl-benzoic acid N-(1-tert-butyl-butyl)-N′-(2-ethyl-3-methoxy-benzoyl)-hydrazide] | 924±80 | detectable | ≤ 8 | lower HuEPO expression | –
2 | CCC[C@@H](N(NC(=O)c1cccc(OC)c1CC)C(=O)c1cc(C)cc(C)c1)C(C)(C)C [AL] | – | – | – | – | did not result in significant inhibition of tumor growth
